The record followed here is patent US11236069B2, “KIF18A inhibitors” (AMGEN INC., priority 2018, dated 2022).

The target of this assay is Recombinant human KIF18A (1-467 His-tagged) protein (Homo sapiens (Human), UniProt Q8NI77). Nature of the assay: KIF18A Enzyme Assay: microtubule-stimulated ATPase activity (ADP-Glo). The settings on record: read-out: KIF18A ATPase IC50; 30 nM KIF18A, 30 μg/mL pig microtubules, ATP at Km 75 μM, ADP-Glo luminescence. On the technique in general: ADP-Glo first removes unused ATP, then detects ADP through luciferase.
Chain of Recombinant human KIF18A (1-467 His-tagged) protein (Q8NI77 1-467): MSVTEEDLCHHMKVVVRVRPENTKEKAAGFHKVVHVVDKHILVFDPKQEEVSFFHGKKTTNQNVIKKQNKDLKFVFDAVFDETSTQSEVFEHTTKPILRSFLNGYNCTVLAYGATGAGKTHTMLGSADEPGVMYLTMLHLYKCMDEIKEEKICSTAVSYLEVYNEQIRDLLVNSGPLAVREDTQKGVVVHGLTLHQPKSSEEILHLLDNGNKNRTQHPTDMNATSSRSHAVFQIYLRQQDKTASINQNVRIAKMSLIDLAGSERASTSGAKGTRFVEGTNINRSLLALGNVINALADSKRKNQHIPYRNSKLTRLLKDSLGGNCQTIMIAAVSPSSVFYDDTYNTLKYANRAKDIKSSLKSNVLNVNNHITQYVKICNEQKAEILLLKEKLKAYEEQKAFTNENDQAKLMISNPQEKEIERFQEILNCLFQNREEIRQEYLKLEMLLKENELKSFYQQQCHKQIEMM
Chain of Recombinant human KIF18A (1-467 His-tagged) protein (P02550 whole entry partner): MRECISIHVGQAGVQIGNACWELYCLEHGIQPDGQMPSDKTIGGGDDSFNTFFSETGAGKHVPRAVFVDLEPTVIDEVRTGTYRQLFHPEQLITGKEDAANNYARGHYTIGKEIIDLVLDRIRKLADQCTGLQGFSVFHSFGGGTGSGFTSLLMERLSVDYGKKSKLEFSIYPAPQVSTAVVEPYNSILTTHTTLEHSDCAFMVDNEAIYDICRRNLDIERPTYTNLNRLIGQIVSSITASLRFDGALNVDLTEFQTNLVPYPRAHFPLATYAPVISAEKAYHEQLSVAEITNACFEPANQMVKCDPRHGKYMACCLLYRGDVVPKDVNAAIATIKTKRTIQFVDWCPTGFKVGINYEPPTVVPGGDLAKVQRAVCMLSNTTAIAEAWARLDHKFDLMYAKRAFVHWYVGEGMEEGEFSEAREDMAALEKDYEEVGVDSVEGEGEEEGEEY
Chain of Recombinant human KIF18A (1-467 His-tagged) protein (P02554 whole entry partner): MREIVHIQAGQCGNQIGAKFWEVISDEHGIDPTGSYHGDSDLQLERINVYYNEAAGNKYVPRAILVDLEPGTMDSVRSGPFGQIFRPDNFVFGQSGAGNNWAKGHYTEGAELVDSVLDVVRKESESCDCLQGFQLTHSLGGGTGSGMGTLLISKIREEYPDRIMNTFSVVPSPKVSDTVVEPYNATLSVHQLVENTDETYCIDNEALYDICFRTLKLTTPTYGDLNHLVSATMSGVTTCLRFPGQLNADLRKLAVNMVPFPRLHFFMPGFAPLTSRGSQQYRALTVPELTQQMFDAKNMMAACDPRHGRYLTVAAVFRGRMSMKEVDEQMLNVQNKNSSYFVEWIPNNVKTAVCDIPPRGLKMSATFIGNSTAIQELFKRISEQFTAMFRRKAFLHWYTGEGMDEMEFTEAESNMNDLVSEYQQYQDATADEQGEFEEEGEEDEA
Text: KIF18A Enzyme Assay: Microtubule-stimulated ATPase activity assay is used to measure KIF18A enzyme activity after treatment with compound. Compounds were 2-fold serially diluted in DMSO (Sigma Inc) over 22-point concentration range. […] The assay measures ADP formed from the ATPase reaction.
Broadly, the IC50 is the midpoint of a concentration-inhibition curve. On to `Cc1cc(NC(=O)c2cc(F)c(NS(=O)(=O)[C@H](C)CO)cc2N2CCC3(CC2)CC3)nc(N2CCC(F)(F)CC2)n1` (single isomer, unassigned) [Example 8-1], for which the IC50 worked out at 91 nM.

In the case of `Cc1cc(NC(=O)c2cc(F)c(NS(=O)(=O)[C@@H](C)CO)cc2N2CCC3(CC2)CC3)nc(N2CCC(F)(F)CC2)n1` (single isomer, unassigned) [Example 8-2], the IC50 was determined as 73 nM.

`Cc1cc(NC(=O)c2ccc(NS(=O)(=O)C[C@@H](C)O)cc2N2CCC3(CC2)CC3)nc(N2CC(F)(F)C2)n1` (single isomer, unassigned) [Example 10-1]: the IC50 stood at 83 nM.

For the compound `Cc1cc(NC(=O)c2ccc(NS(=O)(=O)C[C@H](C)O)cc2N2CCC3(CC2)CC3)nc(N2CC(F)(F)C2)n1` (single isomer, unassigned) [Example 10-2], the IC50 came to 73 nM.

As for `Cc1cc(NC(=O)c2ccc(NS(=O)(=O)[C@H](C)CO)cc2N2CCC3(CC2)CC3)nc(N2CC(F)(F)C2)n1` (single isomer, unassigned) [Example 11-76], the 50% inhibitory concentration (IC50) turned out to be 20 nM.

Consider `Cc1cc(NC(=O)c2ccc([S@](=N)(=O)C3CC3)cc2N2CCC3(CC2)CC3)nc(N2CCC(F)(F)CC2)n1` (single isomer, unassigned) [Example 18-1, 2-(6-Azaspiro[2.5]octan-6-yl)-4-(R-cyclopropylsulfonimidoyl)-N-(2-(4,4-difluoro-1-piperidinyl)-6-methyl-4-pyrimidinyl)benzamide], for which the IC50 is 64 nM.

As to `Cc1cc(NC(=O)c2ccc([S@@](=N)(=O)C3CC3)cc2N2CCC3(CC2)CC3)nc(N2CCC(F)(F)CC2)n1` (single isomer, unassigned) [Example 18-2, 2-(6-Azaspiro[2.5]octan-6-yl)-4-(S-cyclopropylsulfonimidoyl)-N-(2-(4,4-difluoro-1-piperidinyl)-6-methyl-4-pyrimidinyl)benzamide], the IC50 is 57 nM.

For the compound `CC[S@](=N)(=O)c1ccc(C(=O)Nc2cc(C)nc(N3CCC(F)(F)CC3)n2)c(N2CCC3(CC2)CC3)c1` (single isomer, unassigned) [Example 19-4, 2-(6-Azaspiro[2.5]octan-6-yl)-N-(2-(4,4-difluoro-1-pieridinyl)-6-methyl-4-pyrimidinyl)-4-(R-ethylsulfonimidoyl)benzamide], the 50% inhibitory concentration (IC50) amounted to 35 nM.

Turning to `Cc1cc(NC(=O)c2ccc(NS(=O)(=O)C3CCOC3)cc2N2CCC3(CC2)CC3)nc(N2CC(F)(F)C2)n1` (stereo in doubt) [Example 11-71, (R)-N-(2-(3,3-Difluoroazetidin-1-yl)-6-methylpyrimidin-4-yl)-2-(6-azaspiro[2.5]octan-6-yl)-4-((tetrahydrofuran)-3-sulfonamido)benzamide], the IC50 stood at 42 nM.

For `Cc1cc(NC(=O)c2ccc(NS(=O)(=O)C3CCOC3)cc2N2CCC3(CC2)CC3)nc(N2CCC(F)(F)CC2)n1` (stereo in doubt) [Example 11-73, (R)-N-(2-(4,4-Difluoropiperidin-1-yl)-6-methylpyrimidin-4-yl)-2-(6-azaspiro[2.5]octan-6-yl)-4-((tetrahydrofuran)-3 sulfonamido)benzamide], the half-inhibitory concentration (IC50) came to 79 nM.

Take `Cc1cc(NC(=O)c2ccc(S(C)(=O)=O)cc2N2CCC3(CC2)CC3)nc(N[C@H](C)CO)n1` [Example 1-1, (R)-N-(2-((1-Hydroxypropan-2-yl)amino)-6-methylpyrimidin-4-yl)-4-(methylsulfonyl)-2-(6-azaspiro[2.5]octan-6-yl)benzamide]: the half-maximal inhibitory concentration (IC50) amounted to 216 nM.

As to `Cc1cc(NC(=O)c2ccc(S(C)(=O)=O)cc2N2CCC3(CC2)CC3)nc(N[C@@H](C)CO)n1` [Example 1-2, (S)-N-(2-((1-Hydroxypropan-2-yl)amino)-6-methylpyrimidin-4-yl)-4-(methylsulfonyl)-2-(6-azaspiro[2.5]octan-6-yl)benzamide], the IC50 was 491 nM.

For `Cc1cc(NC(=O)c2ccc(S(C)(=O)=O)cc2N2CCC3(CC2)CC3)nc(NCCO)n1` [Example 1-3, N-(2-((2-Hydroxyethyl)amino)-6-methylpyrimidin-4-yl)-4-(methylsulfonyl)-2-(6-azaspiro[2.5]octan-6-yl)benzamide], the 50% inhibitory concentration (IC50) was 849 nM.

With `Cc1cc(NC(=O)c2ccc(S(C)(=O)=O)cc2N2CCC3(CC2)CC3)nc(NC[C@@H](C)O)n1` [Example 1-4, (R)-N-(2-((2-Hydroxypropyl)amino)-6-methylpyrimidin-4-yl)-4-(methylsulfonyl)-2-(6-azaspiro[2.5]octan-6-yl)benzamide], the half-inhibitory concentration (IC50) was 580 nM.

On to `Cc1cc(NC(=O)c2ccc(S(C)(=O)=O)cc2N2CCC3(CC2)CC3)nc(NC[C@H](C)O)n1` [Example 1-5, (S)-N-(2-((2-Hydroxypropyl)amino)-6-methylpyrimidin-4-yl)-4-(methylsulfonyl)-2-(6-azaspiro[2.5]octan-6-yl)benzamide], for which the 50% inhibitory concentration (IC50) worked out at 451 nM.

Turning to `Cc1cc(NC(=O)c2ccc(S(=O)(=O)NC3(C)COC3)cc2N2CCC3(CC2)CC3)nc(OCCC(F)(F)F)n1` [Example 1-6, N-(6-Methyl-2-(3,3,3-trifluoropropoxy)pyrimidin-4-yl)-4-(N-(3-methyloxetan-3-yl)sulfamoyl)-2-(6-azaspiro[2.5]octan-6-yl)benzamide], the IC50 was found to be 32 nM.

`Cc1cc(NC(=O)c2ccc(S(=O)(=O)NC3(C)COC3)cc2N2CCC3(CC2)CC3)nc(NC(C)(C)CO)n1` [Example 1-7, N-(2-((1-Hydroxy-2-methylpropan-2-yl)amino)-6-methylpyrimidin-4-yl)-4-(N-(3-methyloxetan-3-yl)sulfamoyl)-2-(6-azaspiro[2.5]octan-6-yl)benzamide]: the IC50 was determined as 168 nM.

Regarding `CC1(NS(=O)(=O)c2ccc(C(=O)Nc3ccnc(C(C)(C)O)n3)c(N3CCC4(CC3)CC4)c2)COC1` [Example 2, N-(2-(2-Hydroxypropan-2-yl)pyrimidin-4-yl)-4-(N-(3-methyloxetan-3-yl)sulfamoyl)-2-(6-azaspiro[2.5]octan-6-yl)benzamide], the IC50 is 143 nM.

For `Cc1cc(NC(=O)c2ccc(S(=O)(=O)NC3(C)COC3)cc2N2CCC3(CC2)CC3)nc(C(C)(C)O)n1` [Example 2-1, N-(2-(2-Hydroxypropan-2-yl)-6-methylpyrimidin-4-yl)-4-(N-(3-methyloxetan-3-yl)sulfamoyl)-2-(6-azaspiro[2.5]octan-6-yl)benzamide], the IC50 was determined as 65 nM.

For the compound `C[C@@H]1CN(c2nccc(NC(=O)c3ccc(S(=O)(=O)NC4(C)COC4)cc3N3CCC4(CC3)CC4)n2)CCO1` [Example 2-2, (R)-N-(2-(2-Methylmorpholino)pyrimidin-4-yl)-4-(N-(3-methyloxetan-3-yl)sulfamoyl)-2-(6-azaspiro[2.5]octan-6-yl)benzamide], the IC50 stood at 68 nM.

Consider `Cc1cc(NC(=O)c2ccc(S(=O)(=O)NC3(C)COC3)cc2N2CCC3(CC2)CC3)nc(N2CCO[C@H](C)C2)n1` [Example 2-3, (R)-N-(6-Methyl-2-(2-methylmorpholino)pyrimidin-4-yl)-4-(N-(3-methyloxetan-3-yl)sulfamoyl)-2-(6-azaspiro[2.5]octan-6-yl)benzamide], for which the IC50 stood at 115 nM.

In the case of `CC1(NS(=O)(=O)c2ccc(C(=O)Nc3ccnc(N4CCC(F)(F)CC4)c3)c(N3CCC4(CC3)CC4)c2)COC1` [Example 2-4, N-(2-(4,4-Difluoropiperidin-1-yl)pyridin-4-yl)-4-(N-(3-methyloxetan-3-yl)sulfamoyl)-2-(6-azaspiro[2.5]octan-6-yl)benzamide], the IC50 came to 29 nM.
